Patent US10905123B2, “Herbicidal compounds” (Syngenta Participations AG, priority 2015, dated 2021)

Experiments:
Assay type in all cases: in vivo
Conditions in all cases: Rate 1000 g/ha; evaluated after 13 days
[1] = system: Alopecurus myosuroides (ALOMY); experiment: B1 pre-emergence herbicidal activity
Method: (§1) Seeds of a variety of test species were sown in standard soil in pots: Triticum aestivium (TRZAW), Oryza sativa (ORYSA), Avena fatua (AVEFA), Alopecurus myosuroides (ALOMY), Echinochloa crus-galli (ECHCG), Lolium perenne (LOLPE). After cultivation for one day (pre-emergence) under controlled conditions in a glasshouse (at 24/16° C., day/night; 14 hours light; 65% humidity), the plants were sprayed with an aqueous spray solution derived from the formulation of the technical active ingredient in acetone/water (50:50) solution containing 0.5% Tween 20 (polyoxyethelyene sorbitan monolaurate, CAS RN 9005-64-5). The test plants were then grown in a glasshouse under controlled conditions (at 24/16° C., day/night; 14 hours light; 65% humidity) and watered twice daily. After 13 days, the test was evaluated (5=total damage to plant; 0=no damage to plant).

Avena fatua (AVEFA) [2] = experiment: B1 pre-emergence herbicidal activity
Method: as §1

[3] = system: Echinochloa crus-galli (ECHCG); experiment: B1 pre-emergence herbicidal activity
Method: as §1

Lolium perenne (LOLPE) [4] = experiment: B1 pre-emergence herbicidal activity
Method: as §1

Oryza sativa (ORYSA) [5] = experiment: B1 pre-emergence herbicidal activity
Method: as §1

[6] = system: Triticum aestivium (TRZAW); experiment: B1 pre-emergence herbicidal activity
Method: as §1

[7] = system: Alopecurus myosuroides (ALOMY); experiment: B2 post-emergence herbicidal activity
Method: (§2) Seeds of a variety of test species were sown in standard soil in pots: Triticum aestivium (TRZAW), Oryza sativa (ORYSA), Avena fatua (AVEFA), Alopecurus myosuroides (ALOMY), Echinochloa crus-galli (ECHCG), Lolium perenne (LOLPE). After 8 days cultivation (post-emergence) under controlled conditions in a glasshouse (at 24/16° C., day/night; 14 hours light; 65% humidity), the plants were sprayed with an aqueous spray solution derived from the formulation of the technical active ingredient in acetone/water (50:50) solution containing 0.5% Tween 20 (polyoxyethelyene sorbitan monolaurate, CAS RN 9005-64-5). The test plants were then grown in a glasshouse under controlled conditions (at 24/16° C., day/night; 14 hours light; 65% humidity) and watered twice daily. After 13 days, the test was evaluated (5=total damage to plant; 0=no damage to plant).

Avena fatua (AVEFA) [8] = experiment: B2 post-emergence herbicidal activity
Method: as §2

[9] = system: Echinochloa crus-galli (ECHCG); experiment: B2 post-emergence herbicidal activity
Method: as §2

Lolium perenne (LOLPE) [10] = experiment: B2 post-emergence herbicidal activity
Method: as §2

Oryza sativa (ORYSA) [11] = experiment: B2 post-emergence herbicidal activity
Method: as §2

[12] = system: Triticum aestivium (TRZAW); experiment: B2 post-emergence herbicidal activity
Method: as §2

Row | Structure (SMILES) | Control of ALOMY after pre-emergence application (damage score 0-5) [1] | Control of AVEFA after pre-emergence application (damage score 0-5) (Avena fatua (AVEFA) [2]) | Control of ECHCG after pre-emergence application (damage score 0-5) [3] | Control of LOLPE after pre-emergence application (damage score 0-5) (Lolium perenne (LOLPE) [4]) | Control of ORYSA after pre-emergence application (damage score 0-5) (Oryza sativa (ORYSA) [5]) | Control of TRZAW after pre-emergence application (damage score 0-5) [6] | Control of ALOMY after post-emergence application (damage score 0-5) [7] | Control of AVEFA after post-emergence application (damage score 0-5) (Avena fatua (AVEFA) [8]) | Control of ECHCG after post-emergence application (damage score 0-5) [9] | Control of LOLPE after post-emergence application (damage score 0-5) (Lolium perenne (LOLPE) [10]) | Control of ORYSA after post-emergence application (damage score 0-5) (Oryza sativa (ORYSA) [11]) | Control of TRZAW after post-emergence application (damage score 0-5) [12]
1 | Cc1nn(-c2cncnc2)cc1N(C)C1=NCCCCO1 [Compound A53] | 0 | 0 | 0 | 0 | 0 | 0 | 0 | 0 | 0 | 1 | 0 | 0
2 | C=CCN(C(=O)OC(C)(C)C)c1cn(-c2cncc(F)c2)nc1C [Compound A54] | 0 | 0 | 0 | 0 | 0 | 0 | 1 | 1 | 1 | 1 | 0 | 0
3 | CCN(C(=O)OC(C)(C)C)c1cn(-c2cncc(F)c2)nc1C(F)(F)F [Compound A55] | 0 | 0 | 0 | 0 | 0 | 0 | 0 | 0 | 0 | 0 | 0 | 0
4 | CCN(C(=O)OC(C)(C)C)c1cn(-c2cncnc2)nc1C(F)(F)F [Compound A56] | 0 | 0 | 1 | 0 | 0 | 0 | 1 | 1 | 1 | 0 | 0 | 1
